Our source for the Ki and melting point values is patent publication US6653300B2, “Pyrazole compounds useful as protein kinase inhibitors” (Vertex Pharmaceuticals Incorporated, priority 2000, dated 2003).

The Ki is a dissociation constant, usually derived from enzyme kinetics or from competition with a known ligand. Read a low Ki as a stronger hold on the target. Usually melting point stands for the temperature, or range, at which the solid turns liquid.

In data set [1] the target is T1, GSK-3β (AA 1-420) (Homo sapiens, UniProt P49841).
T1 construct: GSK-3β (AA 1-420)
Description: Ki determination for the inhibition of GSK-3 (coupled enzyme system). The format is biochemical. The note with it: 20 μM ATP, 20 nM GSK-3β, 30° C. As to the method: Compounds were screened for their ability to inhibit GSK-3β (AA 1-420) activity using a standard coupled enzyme system (Fox et al. (1998) Protein Sci. 7, 2249). Reactions were carried out in a solution containing 100 mM HEPES (pH 7.5), 10 mM MgCl2, 25 mM NaCl, 300 μM NADH, 1 mM DTT and 1.5% DMSO. Final substrate concentrations in the assay were 20 μM ATP (Sigma Chemicals, St Louis, Mo.) and 300 μM peptide (HSSPHQS (PO3H2) EDEEE, American Peptide, Sunnyvale, Calif.). Reactions were carried out at 30° C. and 20 nM GSK-3β. Final concentrations of the components of the coupled enzyme system were 2.5 mM phosphoenolpyruvate, 300 μM NADH, 30 μg/ml pyruvate kinase and 10 μg/ml lactate dehydrogenase.
An assay stock buffer solution was prepared containing all of the reagents listed above with the exception of ATP and the test compound of interest. The assay stock buffer solution (175 μl) was incubated in a 96 well plate with 5 μl of the test compound of interest at final concentrations spanning 0.002 μM to 30 μM at 30° C. for 10 min. […] The reaction was initiated by the addition of 20 μl of ATP (final concentration 20 μM). Rates of reaction were obtained using a Molecular Devices Spectramax plate reader (Sunnyvale, Calif.) over 10 min at 30° C. The Ki values were determined from the rate data as a function of inhibitor concentration.

T1 sequence (P49841 whole entry, the tested form may be a part): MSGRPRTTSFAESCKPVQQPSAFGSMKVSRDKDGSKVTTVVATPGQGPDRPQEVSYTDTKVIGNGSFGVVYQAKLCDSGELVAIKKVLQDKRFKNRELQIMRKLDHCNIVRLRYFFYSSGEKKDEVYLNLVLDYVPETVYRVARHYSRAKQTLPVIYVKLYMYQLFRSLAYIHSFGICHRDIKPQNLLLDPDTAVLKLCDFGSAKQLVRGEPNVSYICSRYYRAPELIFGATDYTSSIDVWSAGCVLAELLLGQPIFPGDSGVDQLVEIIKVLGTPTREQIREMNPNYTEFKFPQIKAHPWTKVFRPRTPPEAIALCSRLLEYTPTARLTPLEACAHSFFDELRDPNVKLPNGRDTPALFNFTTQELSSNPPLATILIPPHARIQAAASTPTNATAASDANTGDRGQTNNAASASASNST

`Cc1cnc(Sc2ccc3ccccc3c2)nc1Nc1cc(C2CC2)[nH]n1` [IIIa-5, (5-Cyclopropyl-2H-pyrazol-3-yl)-[5-methyl-2-(naphthalen-2-ylsulfanyl)-pyrimidin-4-yl]-amine] showed a melting point of 197 °C. This compound also returned a Ki in data set [1] of 100 to 1000 nM.

Turning to `CCCS(=O)(=O)Nc1ccc(Sc2nc(Nc3cc(C)n[nH]3)cc(-c3ccccc3)n2)cc1` [IIIa-17, (5-Methyl-2H-pyrazol-3-yl)-{6-phenyl-2-[4-(propane-1-sulfonylamino)-phenylsulfanyl]-pyrimidin-4-yl}-amine], the melting point is 232 to 235 °C. The compound also came in with a Ki in data set [1] below 100 nM.

In turn, `CCS(=O)(=O)Nc1ccc(Sc2nc(Nc3cc(C)[nH]n3)cc(-c3ccccc3)n2)cc1` [IIIa-18, [2-(4-Ethanesulfonylamino-phenylsulfanyl)-6-phenyl-pyrimidin-4-yl]-(5-methyl-2H-pyrazol-3-yl)-amine] yielded a melting point of 251 to 254 °C. In addition, the inhibition constant (Ki) in data set [1] is below 100 nM.

Consider `Cc1cc(Nc2cc(-c3ccccc3)nc(Sc3ccc(NS(=O)(=O)C(C)C)cc3)n2)n[nH]1` [IIIa-24, [2-(4-Isopropanesulfonylamino-phenyl-sulfanyl)-6-phenyl-pyrimidin-4-yl]-(5-methyl-2H-pyrazol-3-yl)-amine], for which the melting point fell in the range of 255 to 257 °C. The Ki in data set [1] is below 100 nM.

As for `CCC(=O)Nc1ccc(Sc2nc(Nc3cc(C4CC4)[nH]n3)cc(-c3ccccc3)n2)cc1` [IIIa-33, (5-Cyclopropyl-2H-pyrazol-3-yl)-[6-phenyl-2-(4-propionylamino-phenyl-sulfanyl)-pyrimidin-4-yl]-amine], the melting point fell in the range of 208 to 209 °C. The compound also returned a Ki in data set [1] of 100 to 1000 nM.

`c1ccc(Nc2nc(Nc3cc(C4CC4)[nH]n3)cc(-c3ccccc3)n2)cc1` [IIIc-2, (5-Cyclopropyl-2H-pyrazol-3-yl)-(6-phenyl-2-phenylamino-pyrimidin-4-yl)-amine] displayed a melting point of 267 to 269 °C.

For `Cc1cc(Nc2nc(N(CCO)c3ccccc3)nc3ccccc23)n[nH]1` [IIc-1, {2-[(2-Hydroxyethyl)phenylamino]-quinazolin-4-yl}-(5-methyl-2H-pyrazol-3-yl)-amine], the melting point is 217 °C.

`COc1ccc(-c2cc(Nc3cc(C)[nH]n3)nc(Sc3ccc(NC(C)=O)cc3)n2)cc1` [IIIa-22, [2-(4-Acetamido-phenyl-sulfanyl)-6-(4-methoxyphenyl)-pyrimidin-4-yl]-(5-methyl-2H-pyrazol-3-yl)-amine] yielded a melting point of 241 to 245 °C. In data set [1], this compound showed a Ki of 100 to 1000 nM.

`Cc1cc(Nc2cc(C3CC3)[nH]n2)nc(Sc2ccc3ccccc3c2)n1` [IIIa-6, (5-Cyclopropyl-2H-pyrazol-3-yl)-[6-methyl-2-(naphthalen-2-ylsulfanyl)-pyrimidin-4-yl]-amine] came in with a melting point of 232 °C. Also, in data set [1], the Ki was below 100 nM.

As to `Cc1cc(Nc2nc(Sc3nc4ccccc4[nH]3)nc3ccccc23)n[nH]1` [IIa-19, [2-(Benzimidazol-2-ylsulfanyl)-quinazolin-4-yl]-(5-methyl-2H-pyrazol-3-yl)-amine], the melting point lay in the range of 192 to 196 °C.

Compound `CN1CCN(c2cc(Nc3cc(C4CC4)[nH]n3)nc(Sc3ccc4ccccc4c3)n2)CC1` [IIIa-8, (5-Cyclopropyl-2H-pyrazol-3-yl)-[6-(1-methylpiperazin-4-yl)-2-(naphthalen-2-ylsulfanyl)-pyrimidin-4-yl]-amine] showed a melting point of 113 to 115 °C. Also, in data set [1], the Ki was 100 to 1000 nM.

The compound `Cc1nc(Sc2ccc3ccccc3c2)nc(Nc2cc(C3CC3)[nH]n2)c1C` [IIIa-4, (5-Cyclopropyl-2H-pyrazol-3-yl)-[5,6-dimethyl-2-(naphthalen-2-ylsulfanyl)-pyrimidin-4-yl]-amine] yielded a melting point above 270 °C. The compound further displayed a Ki in data set [1] of 100 to 1000 nM.

Turning to `COCc1cc(Nc2cc(C)[nH]n2)nc(Sc2ccc(C(=O)OC)cc2)n1` [IIIa-39, [2-(4-Methoxycarbonyl-phenyl-sulfanyl)-6-methoxymethyl-pyrimidin-4-yl]-(5-methyl-2H-pyrazol-3-yl)-amine], the melting point was 204 to 205 °C.

For the compound `Cc1cc(Nc2cc(-c3ccccc3)nc(Sc3ccc(NC(=O)C4CC4)cc3)n2)n[nH]1` [IIIa-16, [2-(4-Cyclopropanecarbonylamino-phenylsulfanyl)-6-phenylpyrimidin-4-yl]-(5-methyl-2H-pyrazol-3-yl)-amine], the melting point lay in the range of 253 to 255 °C. Moreover, in data set [1], the Ki was 1000 to 7000 nM.

In the case of `COCCNc1cc(Nc2cc(C)[nH]n2)nc(SCc2cccc(Cl)c2)n1` [IIIa-27, [2-(3-Chloro-benzylsulfanyl)-6-(2-methoxy-ethylamino)-pyrimidin-4-yl]-(5-methyl-2H-pyrazol-3-yl)-amine], the melting point fell in the range of 101 to 102 °C. The same compound yielded a Ki in data set [1] below 100 nM.

Consider `Cc1cc(Nc2cc(N3CCOCC3)nc(SCc3cccc(Cl)c3)n2)n[nH]1` [IIIa-26, [2-(3-Chloro-benzylsulfanyl)-6-morpholin-4-yl-pyrimidin-4-yl]-(5-methyl-2H-pyrazol-3-yl)-amine], for which the melting point was in the range of 224 to 225 °C. This compound also gave a Ki in data set [1] of 100 to 1000 nM.

`Cc1cc(Nc2cc(-c3ccccc3C)nc(Sc3ccc4ccccc4c3)n2)n[nH]1` [IIIa-10, [6-(2-Methylphenyl)-2-(naphthalen-2-ylsulfanyl)-pyrimidin-4-yl]-(5-methyl-2H-pyrazol-3-yl)-amine] came in with a melting point of 211 to 214 °C. In data set [1], this compound displayed a Ki of 100 to 1000 nM.

As to `c1ccc2cc(Sc3nc(Nc4cc(C5CC5)[nH]n4)cc(N4CCOCC4)n3)ccc2c1` [IIIa-7, (5-Cyclopropyl-2H-pyrazol-3-yl)-[6-(morpholin-4-yl)-2-(naphthalen-2-ylsulfanyl)-pyrimidin-4-yl]-amine], the melting point was in the range of 118 to 120 °C. Further, in data set [1], the Ki is 100 to 1000 nM.

Take `COC(=O)c1cccc(Sc2nc(Nc3cc(C4CC4)[nH]n3)cc(-c3ccccc3)n2)c1` [IIIa-2, (5-Cyclopropyl-2H-pyrazol-3-yl)-[2-(3-methoxycarbonyl-phenylylsulfanyl)-6-phenylpyrimidin-4-yl]-amine]: the melting point was in the range of 126 to 129 °C. In addition, the Ki in data set [1] was below 100 nM.

Compound `Cc1cc(Nc2cc(-c3c(C)cccc3C)nc(Sc3ccc4ccccc4c3)n2)n[nH]1` [IIIa-9, [6-(2,6-Dimethylphenyl)-2-(naphthalen-2-ylsulfanyl)-pyrimidin-4-yl]-(5-methyl-2H-pyrazol-3-yl)-amine] yielded a melting point of 148 to 152 °C.

`Cc1cc(Nc2cc(-c3ccccc3)nc(Sc3ccc4ccccc4c3)n2)n[nH]1` [IIIa-12, (5-Methyl-2H-pyrazol-3-yl)-[2-(naphthalen-2-ylsulfanyl)-6-phenyl-pyrimidin-4-yl]-amine]: the melting point is 237 to 239 °C.

Regarding `Cc1cc(Nc2cc(-c3ccccc3)nc(Sc3ccc(NC(=O)CC(C)C)cc3)n2)n[nH]1` [IIIa-20, [2-(4-Isobutanecarbonylamino-phenyl-sulfanyl)-6-phenyl-pyrimidin-4-yl]-(5-methyl-2H-pyrazol-3-yl)-amine], the melting point lay within 241 to 243 °C.

With `Cc1cc(Nc2nc(Nc3ccc4oc(=O)c5ccccc5c4c3)nc3ccccc23)n[nH]1` [IIc-62], the melting point lay within 293 to 298 °C. The inhibition constant Ki in data set [1] lay in the range of 1000 to 7000 nM.

`CC(=O)Nc1ccc(Sc2nc(Nc3cc(C)[nH]n3)cc(-c3cccc(NC(C)=O)c3)n2)cc1` [IIIa-23, [6-(3-Acetamidophenyl)-2-(4-acetamido-phenyl-sulfanyl)-pyrimidin-4-yl]-(5-methyl-2H-pyrazol-3-yl)-amine] came in with a melting point of 227 to 230 °C. This compound also came in with a Ki in data set [1] of 100 to 1000 nM.

For `Cc1cccc(Nc2nc(Nc3cc(C4CC4)[nH]n3)cc(-c3ccccc3)n2)c1` [IIIc-3, (5-Cyclopropyl-2H-pyrazol-3-yl)-[2-(3-methylphenylamino)-6-phenyl-pyrimidin-4-yl]-amine], the melting point lay within 267 to 270 °C.

As for `c1ccc2cc(Sc3nccc(Nc4cc(C5CC5)[nH]n4)n3)ccc2c1` [IIIa-3, (5-Cyclopropyl-2H-pyrazol-3-yl)-[2-(naphthalen-2-ylsulfanyl)-pyrimidin-4-yl]-amine], the melting point fell in the range of 248 to 250 °C. The compound further came in with a Ki in data set [1] below 100 nM.

Compound `c1ccc(-c2cc(Nc3cc(C4CC4)[nH]n3)nc(NCc3cccnc3)n2)cc1` [IIIc-5, (5-Cyclopropyl-2H-pyrazol-3-yl)-[6-phenyl-2-(pyridin-3-ylmethylamino)-pyrimidin-4-yl]-amine] gave a melting point of 191 to 193 °C.

Take `c1ccc2c(Sc3nc(Nc4cc(C5CC5)n[nH]4)c4ccccc4n3)cccc2c1` [IIa-37, (5-Cyclopropyl-2H-pyrazol-3-yl)-[2-(naphthalen-1-ylsulfanyl)-quinazolin-4-yl]-amine]: the melting point was 271 to 273 °C.
